These results are taken from ChEMBL document CHEMBL1201862, “PubChem BioAssay data set” (2004).

Assay [1] has as its target Neurotensin receptor type 1 (Homo sapiens, UniProt P30989). It counts as functional.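 Note: Image-based confirmatory dose-response assay measuring agonist activity at NTR1; NTR1-expressing U2OS osteosarcoma cells imaged for beta-arrestin GFP spot formation; agonist potency where compounds increase beta-arrestin recruitment.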
Assay [2] in a line: viability loss in HeLa cells – cytotoxicity control for MgcRacGAP inhibitor project, dose response (AID 624300). Format: functional.
A short description of assay [3]: viability of uninfected HEp-2 cells – cell-based, HTS, cytotoxicity control for RSV inhibitor project, dose response (AID 2410). Format: functional. The conditions noted are these: human respiratory syncytial virus.
The nature of assay [4]: reduction of Shn3 3'UTR-driven luciferase in osteoblasts – cell-based, Clone20 osteoblasts, firefly luciferase, cherry-picked, dose response (AID 624132).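 Note: firefly luciferase luminescence from reporter carrying the Shn3 3'UTR in osteoblasts.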 It counts as functional.
The target in assay [5] is T1, Voltage-gated N-type calcium channel alpha-1B subunit/Amyloid beta A4 precursor protein-binding family A member 1 (Homo sapiens, UniProt Q00975+Q02410). It counts as protein assay.
The next assay has as its system INS1. The assay can be described thus: INS-1E survival protection against cytokine death – cell-based, luminescence, retest, dose response (AID 449756).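 Note: cell death triggered by IL-1 beta plus TNF-alpha plus IFN-gamma mixture; protective hits raise ATP signal compared with cytokine alone wells.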 Format: functional. The conditions noted are these: Rattus norvegicus.
The nature of assay [6]: non-specific 3'UTR reporter inhibition in Clone20-Shn3RL – cell-based, Renilla luciferase, cherry-picked, counter-screen for Shn3 inhibitor project, dose response (AID 624133). It counts as functional.
Another assay concerns the target Genome polyprotein (dengue virus type 2, UniProt P29990). Nature of the assay: flavivirus cap methylation enzyme inhibition – biochemical, confirmation dose response, primary screen (AID 588689). Format: functional.
For assay [7], the target named is T1, Voltage-gated N-type calcium channel alpha-1B subunit/Amyloid beta A4 precursor protein-binding family A member 1. Format: protein assay. The source holds these as a separate data set.
The target of another assay is Large T antigen (Simian virus 40, UniProt P03070). It counts as functional, Betapolyomavirus macacae.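 Note: Confirmatory-stage PubChem screen for compounds that inhibit SV40 T antigen.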
The target of assay [8] is T2, Rac GTPase-activating protein 1 (Homo sapiens, UniProt Q9H0H5).
T2 sequence (Q9H0H5 whole entry): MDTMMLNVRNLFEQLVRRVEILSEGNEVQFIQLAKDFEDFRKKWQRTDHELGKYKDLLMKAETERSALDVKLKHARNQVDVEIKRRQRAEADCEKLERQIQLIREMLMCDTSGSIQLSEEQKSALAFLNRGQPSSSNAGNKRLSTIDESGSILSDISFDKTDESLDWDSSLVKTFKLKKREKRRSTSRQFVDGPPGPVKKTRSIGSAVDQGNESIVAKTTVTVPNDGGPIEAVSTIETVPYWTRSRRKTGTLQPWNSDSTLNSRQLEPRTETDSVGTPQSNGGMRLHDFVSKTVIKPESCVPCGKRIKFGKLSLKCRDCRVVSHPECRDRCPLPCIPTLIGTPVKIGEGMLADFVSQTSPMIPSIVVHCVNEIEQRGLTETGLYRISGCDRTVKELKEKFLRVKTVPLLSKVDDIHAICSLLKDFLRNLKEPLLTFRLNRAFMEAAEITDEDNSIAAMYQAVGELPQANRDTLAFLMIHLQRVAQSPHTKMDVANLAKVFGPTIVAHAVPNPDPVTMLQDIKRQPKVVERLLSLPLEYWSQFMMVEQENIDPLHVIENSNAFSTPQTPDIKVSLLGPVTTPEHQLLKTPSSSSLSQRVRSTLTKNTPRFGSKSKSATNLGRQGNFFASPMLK
The assay can be described thus: blockers of MgcRacGAP-driven Rac1 GTP hydrolysis – biochemical, ADP Hunter fluorescence, primary and confirmatory, confirmation (AID 624330). Format: functional.

In assay [9] the target is DNA damage-inducible transcript 3 protein (Mus musculus, UniProt P35639). It counts as functional, Cricetulus griseus.
For assay [10], the target named is Tyrosine-protein phosphatase non-receptor type 7 (Homo sapiens, UniProt P35236). It counts as functional.
The target in assay [11] is T3, Tyrosine-protein phosphatase non-receptor type 22 (Homo sapiens, UniProt Q9Y2R2). Format: functional.
The target of assay [12] is T3, Tyrosine-protein phosphatase non-receptor type 22. It counts as functional. The source holds these as a separate data set.
The next assay has as its system T-cell. Nature of the assay: loss of vesicle association with mouse CD8+ T cells – mouse 2C CD8+ T cells, flow cytometry, dose response (AID 485284). Format: functional.
The target of another assay is Integrin alpha-L (Mus musculus, UniProt P24063). Nature of the assay: modulators of CD8 T cell-vesicle binding, dose response, powder samples, mouse 2C CD8+ cells (AID 504565). Format: functional.
Assay [13] in a line: microbe, parasite or virus in culture. The settings on record: Mycobacterium tuberculosis. Format: functional.
In the next assay the target is Troponin, cardiac muscle (Homo sapiens, UniProt P19429+P45379+P63316). The assay can be described thus: Fluorescence-based biochemical high throughput dose response assay for activators of the calcium sensitivity of cardiac Regulated Thin Filaments (RTF). [Related pubchem assays (depositor defined):AID493008, AID493018, AID504382, AID504383]. Format: protein-complex assay.

Assay [14] has as its target T4, Heat shock factor protein 1 (Mus musculus, UniProt P38532).
T4 sequence (P38532 whole entry): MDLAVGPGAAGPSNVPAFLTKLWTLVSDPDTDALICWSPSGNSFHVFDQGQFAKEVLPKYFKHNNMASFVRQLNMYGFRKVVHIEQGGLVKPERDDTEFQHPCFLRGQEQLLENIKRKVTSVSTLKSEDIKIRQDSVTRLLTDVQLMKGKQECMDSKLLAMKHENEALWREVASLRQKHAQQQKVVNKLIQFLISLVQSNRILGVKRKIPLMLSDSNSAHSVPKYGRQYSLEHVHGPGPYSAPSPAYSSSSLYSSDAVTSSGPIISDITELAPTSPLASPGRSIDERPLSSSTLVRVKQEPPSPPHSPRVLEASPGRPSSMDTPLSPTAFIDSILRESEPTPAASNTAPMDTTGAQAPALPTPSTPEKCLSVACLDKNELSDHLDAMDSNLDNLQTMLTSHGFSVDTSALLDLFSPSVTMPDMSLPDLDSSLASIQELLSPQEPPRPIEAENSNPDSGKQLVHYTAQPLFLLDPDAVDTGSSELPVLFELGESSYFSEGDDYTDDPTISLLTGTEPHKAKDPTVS
Nature of the assay: enhancement of HSF1-driven luciferase signal – cell-based, NIH3T3, luminescence, dose retest, confirmation (AID 435004).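 Note: stress induced by proteasome inhibitor MG132 added 30 min after compound; luciferase reporter driven by HSF1 response element in NIH3T3 cells; actives raise luminescence as potentiators of the MG132 stress response.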 It counts as functional.

Assay [15] is described as follows: Intein inhibitors as potential Tuberculosis drugs, a cytotoxicity screen. [Related pubchem assays (depositor defined):AID2221, AID2223, AID434968, AID435010, AID449749, AID449750, AID489010]. It counts as functional.
For assay [16], the target named is T5, Replicative DNA helicase DnaB (Mycobacterium tuberculosis, UniProt P9WMR3).
T5 sequence (P9WMR3 whole entry): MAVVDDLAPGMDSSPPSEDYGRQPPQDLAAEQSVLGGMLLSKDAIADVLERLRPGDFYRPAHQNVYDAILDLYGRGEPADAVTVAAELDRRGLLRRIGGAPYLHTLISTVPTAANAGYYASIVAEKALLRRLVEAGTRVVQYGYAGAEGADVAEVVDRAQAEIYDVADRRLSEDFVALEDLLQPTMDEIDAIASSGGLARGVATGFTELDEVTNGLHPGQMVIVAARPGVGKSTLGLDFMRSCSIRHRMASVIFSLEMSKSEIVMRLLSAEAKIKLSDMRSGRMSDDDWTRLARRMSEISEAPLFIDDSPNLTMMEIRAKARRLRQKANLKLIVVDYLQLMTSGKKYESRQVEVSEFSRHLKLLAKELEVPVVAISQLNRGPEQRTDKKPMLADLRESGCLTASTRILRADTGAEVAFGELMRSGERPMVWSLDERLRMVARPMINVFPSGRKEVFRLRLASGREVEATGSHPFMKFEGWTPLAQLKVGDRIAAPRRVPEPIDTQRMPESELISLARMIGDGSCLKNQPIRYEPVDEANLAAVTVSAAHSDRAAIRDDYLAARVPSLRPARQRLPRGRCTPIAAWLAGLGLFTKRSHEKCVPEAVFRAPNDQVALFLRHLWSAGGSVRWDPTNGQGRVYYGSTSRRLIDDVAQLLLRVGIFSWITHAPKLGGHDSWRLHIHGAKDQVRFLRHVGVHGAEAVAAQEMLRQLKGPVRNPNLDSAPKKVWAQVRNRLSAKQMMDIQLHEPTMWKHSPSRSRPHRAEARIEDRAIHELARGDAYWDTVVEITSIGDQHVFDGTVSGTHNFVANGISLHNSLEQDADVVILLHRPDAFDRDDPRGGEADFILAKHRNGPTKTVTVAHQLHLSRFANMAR
The assay can be described thus: DnaB intein splicing inhibitors, dose response, biochemical, cell-free fluorescence (AID 449749). It counts as functional.

A short description of assay [17]: viability of HCT116 lacking mutant beta-catenin – cell-based, human colon tumor, dose response (AID 1045).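 Note: HCT116 colon tumor cells with beta catenin knocked out; cells exposed to compound for 60 hours.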 Format: functional.
Assay [18] in a line: viability of PTEN-deleted HCT116 cells – cell-based, HCT116 PTEN knockout, dose response (AID 1047).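 Note: HCT116 colon tumor cells with PTEN knocked out; cells exposed to compound for 60 hours before readout; potency for loss of cell viability measured by luminescence.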 Format: functional.
In the next assay the target is T6, Protein RecA (Mycobacterium tuberculosis, UniProt P9WHJ3).
T6 sequence (P9WHJ3 whole entry): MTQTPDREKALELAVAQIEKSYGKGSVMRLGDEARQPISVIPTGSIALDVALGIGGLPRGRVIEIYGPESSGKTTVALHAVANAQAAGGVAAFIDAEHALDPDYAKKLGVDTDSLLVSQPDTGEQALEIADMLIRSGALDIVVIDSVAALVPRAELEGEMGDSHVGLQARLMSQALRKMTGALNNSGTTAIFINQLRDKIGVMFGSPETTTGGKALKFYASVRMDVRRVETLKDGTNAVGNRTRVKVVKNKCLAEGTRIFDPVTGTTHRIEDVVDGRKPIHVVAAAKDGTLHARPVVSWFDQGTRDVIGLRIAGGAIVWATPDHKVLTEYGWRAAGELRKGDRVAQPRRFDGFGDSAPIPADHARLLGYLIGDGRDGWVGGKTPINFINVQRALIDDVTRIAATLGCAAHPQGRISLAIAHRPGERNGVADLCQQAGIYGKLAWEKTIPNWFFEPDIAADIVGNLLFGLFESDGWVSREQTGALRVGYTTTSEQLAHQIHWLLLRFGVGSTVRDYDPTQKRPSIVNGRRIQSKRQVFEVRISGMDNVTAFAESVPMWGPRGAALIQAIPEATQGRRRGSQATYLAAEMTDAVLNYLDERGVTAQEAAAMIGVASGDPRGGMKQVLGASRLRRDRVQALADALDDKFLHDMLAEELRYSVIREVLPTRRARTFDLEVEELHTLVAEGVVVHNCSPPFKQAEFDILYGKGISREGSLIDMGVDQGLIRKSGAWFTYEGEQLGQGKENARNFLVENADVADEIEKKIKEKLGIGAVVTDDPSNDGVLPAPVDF
The assay can be described thus: Fluorescence Cell-Free Homogeneous Dose Retest to Identify Inhibitors of RecA-Intein Splicing Activity. [Related pubchem assays (depositor defined):AID2097, AID2223, AID489010, AID492950]. Format: functional.

Assay [19] can be described thus: Vero E6 cell cytotoxicity, dose response, cytotoxicity control for non-replicating M. tuberculosis project, secondary assay (AID 492998). Format: functional, VeroE6. The conditions noted are these: Vero C1008.
Assay [20] deals with T7, Kappa-type opioid receptor (Homo sapiens, UniProt P41145). Nature of the assay: SAR analysis of small molecule antagonists of the kappa opioid receptor via a luminescent beta-arrestin assay - Set 5. [Related pubchem assays (depositor defined):AID1778, AID1785]. It counts as functional.
The target in assay [21] is T7, Kappa-type opioid receptor. Nature of the assay: SAR analysis of small molecule antagonists of the kappa opioid receptor via a luminescent beta-arrestin assay - Set 4. [Related pubchem assays (depositor defined):AID1777, AID1778, AID1785, AID1786, AID1966, AID2133, AID2136, AID2285]. Format: functional.
Assay [22] in a line: HEK-293T viability loss after treatment – luminescence, T-cell screen hits, cytotoxicity control for TCR NF-kB inhibitor project, dose response (AID 489026).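 Note: cells exposed to compound about 14 hours before the viability readout.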 Format: functional, cell-based.
The target in a further assay is Paired box protein Pax-8 (Homo sapiens, UniProt Q06710). The assay can be described thus: PAX8 transcriptional activity inhibition in RMG-I – RMG-I cells, luciferase, cherry-pick, dose response (AID 687027).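 Note: luciferase reporter driven by Pax8 target thyroperoxidase promoter measured by SteadyGlo luminescence.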 It counts as functional, cell-based.

SMILES strings stand for the structures. The source made the active and inactive calls.

`Cc1ccc(-c2ccc(/C=C3\C(=O)ON=C3c3ccccc3)o2)c([N+](=O)[O-])c1`: the half-maximal effective concentration (EC50) in [1] is 7.89 µM (active). Moreover, the CC50 in [2] is 50 µM (active); in assay [3], 9.29 µM (active). For the same molecule, the AC50 was 3.3 µM (active) in assay [4], 7.23 µM (active) in the assay on INS1 and 15 µM (active) in assay [6]. Further, the IC50 was > 50 µM (inactive) in assay [5]; 11.1 µM (active) at Genome polyprotein; 10.5 µM (active) in assay [7]; 29.5 µM (active) on Large T antigen; 67.2 µM (active) in assay [8]. Also, the “Absolute IC50 (CHOP)” value in [9] was 10 µM.

With `O=C(NCc1ccccc1)c1cncc(Br)c1`, the IC50 in assay [10], in assay [11] and in assay [12] was > 79.4 µM (inactive) each time.

Regarding `CCOC(=O)c1ccc(S(=O)(=O)N2CCN(C3CCCC3)CC2)cc1`, the results for the EC50 in the assay on T-cell and at Integrin alpha-L were 22.2 µM (active) and 11 µM (active), respectively.

`CC(Oc1ccc(F)cc1)C(=O)Nc1sc2c(c1C(=O)NCc1cccnc1)CCCC2` (stereo unspecified): the CC50 in assay [13] was > 40 µM (active). Besides, the EC50 at Troponin, cardiac muscle was > 71.5 µM (inactive).

Consider `Cc1cc(C)cc(Cn2ncc(Cl)c(Cl)c2=O)c1`, for which the EC50 in assay [14] is 21.7 µM (active); in [17], 6.91 µM (active); in [18], 8.8 µM (active); at Protein RecA, 985 nM (active). Moreover, in assay [15], the CC50 was 22.5 µM (active). Moreover, the concentration at half-maximal activity (AC50) in [16] is 2.12 µM (active).

For the molecule `O=C(CCS(=O)(=O)Cc1ccccc1)Nc1ncc([N+](=O)[O-])s1`, the CC50 in assay [19] is > 20 µM (active).

Consider `Cc1ccc(S(=O)(=O)NCc2ccc(C(=O)NCCN(Cc3ccccc3)CC(C)C)cc2)cc1`, for which the IC50 is 4.33 µM (active) in assay [20] and > 20 µM (inactive) in [21].

For `COc1ccc(C[C@H](N)C(=O)N[C@H]2[C@@H](O)[C@H](n3cnc4c(N(C)C)ncnc43)O[C@@H]2CO)cc1`, the CC50 in assay [13] was 4.73 µM (active). In assay [22], the IC50 was > 80 µM (inactive). Besides, at Paired box protein Pax-8, the AC50 is 546 nM (active).
